# Source: US11800868B2, “Isoflavonoid compounds and use thereof” (Novozymes BioAg A/S, priority 2004, dated 2023)
# Key:
# tomato = experiment: Signal applied to tomato seedling roots transplanted into soil inoculated with soybean rhizobia (field)
# potato = experiment: Growth promotion of potato tubers with signals, field; assay type: in vivo
# Procedure: Notes: • 1. Microtubers (cv. Bintje, tuber size from 0.5-0.7 g) were soaked in each test solution overnight at 25° C. in the incubator. Treatment rate was 50 ml/treatment, and 50 ml water as control. • 2. […] Treated potato tubers were planted in soil 10-15 cm deep, 10 tubers in 10 M^2 plot and supplied 500 ml of water to each tuber in ground after planting. • 4. Planted date: Aug. 20, 2004 and harvested date: Oct. 15, 2004.
structure (smiles),measurement,setting,value
O=c1c(-c2ccc(O)cc2)coc2cc(O)cc(O)c12 [genistein],Fruit/plot,"tomato; 100 ml at 1 μM/plant, Early",67.75
same,Fruit/plot % vs ctrl,"tomato; 100 ml at 1 μM/plant, Early",16.81%
same,Kg/plot,"tomato; 100 ml at 1 μM/plant, Early",12.02 Kg/plot
same,Kg/plot % vs ctrl,"tomato; 100 ml at 1 μM/plant, Early",15.47%
same,Fruit/plot,"tomato; 100 ml at 1 μM/plant, Normal",241.5
same,Fruit/plot % vs ctrl,"tomato; 100 ml at 1 μM/plant, Normal",10.27%
same,Kg/plot,"tomato; 100 ml at 1 μM/plant, Normal",27.10 Kg/plot
same,Kg/plot % vs ctrl,"tomato; 100 ml at 1 μM/plant, Normal",5.86%
same,Fruit/plot,"tomato; 100 ml at 10 μM/plant, Early",66.25
same,Fruit/plot % vs ctrl,"tomato; 100 ml at 10 μM/plant, Early",14.22%
same,Kg/plot,"tomato; 100 ml at 10 μM/plant, Early",11.64 Kg/plot
same,Kg/plot % vs ctrl,"tomato; 100 ml at 10 μM/plant, Early",11.82%
same,Fruit/plot,"tomato; 100 ml at 10 μM/plant, Normal",217.75
same,Fruit/plot % vs ctrl,"tomato; 100 ml at 10 μM/plant, Normal",−0.57%
same,Kg/plot,"tomato; 100 ml at 10 μM/plant, Normal",25.91 Kg/plot
same,Kg/plot % vs ctrl,"tomato; 100 ml at 10 μM/plant, Normal",1.21%
same,Fruit/plot,"tomato; 100 ml at 50 μM/plant, Early",71
same,Fruit/plot % vs ctrl,"tomato; 100 ml at 50 μM/plant, Early",22.41%
same,Kg/plot,"tomato; 100 ml at 50 μM/plant, Early",12.85 Kg/plot
same,Kg/plot % vs ctrl,"tomato; 100 ml at 50 μM/plant, Early",23.44%
same,Fruit/plot,"tomato; 100 ml at 50 μM/plant, Normal",198.5
same,Fruit/plot % vs ctrl,"tomato; 100 ml at 50 μM/plant, Normal",−9.36%
same,Kg/plot,"tomato; 100 ml at 50 μM/plant, Normal",25.77 Kg/plot
same,Kg/plot % vs ctrl,"tomato; 100 ml at 50 μM/plant, Normal",0.66%
same,tuber size,potato; 300-500 μM,larger tuber size
same,potato tuber yield increase over control,potato; microtubers soaked in 300 μM solution overnight,up to 17.7%
